How the values were obtained:
[1] = system: nutrient protein (lysine); experiment: Effect of temperature on protein glycation, in vitro, spectrophotometer; conditions: for % decrease in AGE formation from 100 to 60 deg C.: protein glycation
Excerpt: (§1) In one embodiment of the present application, glycation is induced in the nutrient proteins by combining them with different types of sugars and thermally processing the combination at various temperatures and with various levels of alkalinity. The processing is repeated by adding the identified glycation inhibitor. The nutrient protein in this case could be lysine or any other nutrient protein in liquid, semisolid or solid form. In the context of this invention, thermal processing implies heating the food at various temperatures using any method of cooking such as baking, roasting, frying, boiling, etc. […] The effectiveness of the inhibiting agents and their combinations were ascertained using a series of in vitro experiments with nutrient lysine or collage protein, various sugars, natural polyunsaturated fatty acids and monounsaturated fatty acids and natural, pure form of inhibiting agents in extract forms. Absorbance values, measured using a spectrophotometer, were used to determine and compare formation of glycated proteins. Industry standard iodometric titration was used to determine and compare peroxidation levels in lipids.

[2] = system: nutrient protein (lysine); experiment: Effect of pH variation on protein glycation, in vitro, spectrophotometer; conditions: for % decrease om AGE formation with decreasing pH: protein glycation
Excerpt: as §1

[3] = system: nutrient protein (lysine) in the presence of reducing sugars; experiment: Inhibition of nutrient protein glycation, in vitro, absorbance by spectrophotometer
Procedure: Percentage inhibition was determined using an in vitro experiment. Lysine was used to simulate the nutrient protein.
In one embodiment of the present application, glycation is induced in the nutrient proteins by combining them with different types of sugars and thermally processing the combination at various temperatures and with various levels of alkalinity. The processing is repeated by adding the identified glycation inhibitor. The nutrient protein in this case could be lysine or any other nutrient protein in liquid, semisolid or solid form.
(§2) The effectiveness of the inhibiting agents and their combinations were ascertained using a series of in vitro experiments with nutrient lysine or collage protein, various sugars, natural polyunsaturated fatty acids and monounsaturated fatty acids and natural, pure form of inhibiting agents in extract forms. Absorbance values, measured using a spectrophotometer, were used to determine and compare formation of glycated proteins. Industry standard iodometric titration was used to determine and compare peroxidation levels in lipids.
(§3) In the case of inhibition of nutrient protein glycation and nutrient lipid peroxidation for disease prevention, it is recommended that the amount of inhibiting agent to be combined with the nutrient protein or nutrient lipid be as shown in the Table 1. Further, a combination of such inhibiting agents could be applied to increase the effectiveness of inhibition.

[4] = system: nutrient lipid (PUFA, MUFA) peroxidation; experiment: Inhibition of nutrient lipid peroxidation, in vitro, iodometric titration
Procedure: Percentage inhibition was determined using an in vitro experiment. Olive oil, a polyunsaturated fatty acid (PUFA) and safflower oil, a monounsaturated fatty acid (MUFA) were used to simulate nutrient lipids.
In another embodiment, peroxidation is induced in nutrient lipids by thermally processing them at various temperatures and with various levels of alkalinity. The processing is repeated by adding the identified peroxidation inhibitor. The nutrient lipid in this case could be polyunsaturated fatty acid or monounsaturated fatty acid in liquid, semisolid or solid form.
as §2, §3

Molecule | Absorbance at different temperatures ([1]; 60 deg C.) | Absorbance at different temperatures ([1]; 80 deg C.) | Absorbance at different temperatures ([1]; 100 deg C.) | % decrease in AGE formation from 100 to 60 deg C. [1] [%] | Absorbance at different pH values ([2]; pH 8) | Absorbance at different pH values ([2]; pH 10) | Absorbance at different pH values ([2]; ph 4) | % decrease om AGE formation with decreasing pH [2] [%] | Concentration needed for 50% inhibition, Protein Glycation [3] [%] | Concentration needed for 50% inhibition, Lipid Peroxidation [4] [%]
O=C[C@H](O)[C@H](O)[C@H](O)CO [Ribose] | 0.13 | 0.52 | 0.59 | 78.1 | 0.59 | 0.79 | 0.09 | 88.4 |  | 
NCCC(=O)N[C@@H](Cc1cnc[nH]1)C(=O)O [Chelating agent (Carnosine), Carnosine] |  |  |  |  |  |  |  |  | 16 | 12
NC(=O)c1cccnc1 [Antioxidant (Niacinamide), Niacinamide] |  |  |  |  |  |  |  |  | 15 | 13
Oc1ccc(C=Cc2cc(O)cc(O)c2)cc1 [Phenol (Resveratrol), Resveratrol] |  |  |  |  |  |  |  |  | 10 | 8
OC[C@H]1O[C@H](O[C@H]2[C@H](O)[C@@H](O)[C@H](O)O[C@@H]2CO)[C@H](O)[C@@H](O)[C@@H]1O [Maltose] | 0.04 | 0.22 | 0.22 | 80.0 | 0.22 | 0.26 | 0.04 | 84.4 |  | 
O=C(CO)[C@@H](O)[C@H](O)[C@H](O)CO [Fructose] | 0.1 | 0.37 | 0.5 | 79.1 | 0.5 | 0.65 | 0.07 | 89.4 |  | 
O=C(O[C@@H]1Cc2c(O)cc(O)cc2O[C@@H]1c1cc(O)c(O)c(O)c1)c1cc(O)c(O)c(O)c1 [Catechin (EGCG), EGCG] |  |  |  |  |  |  |  |  | 13 | 9
O=C1O[C@H]([C@@H](O)CO)C(O)=C1O [Antioxidant (Ascorbic Acid), Ascorbic Acid] |  |  |  |  |  |  |  |  | 7 | 11
OC[C@H]1O[C@@H](O[C@H]2[C@H](O)[C@@H](O)C(O)O[C@@H]2CO)[C@H](O)[C@@H](O)[C@H]1O (some centres unmarked) [Lactose] | 0.06 | 0.18 | 0.17 | 67.9 | 0.17 | 0.22 | 0.02 | 90.8 |  | 
Tocopherol [Antioxidant (Tocopherol)] |  |  |  |  |  |  |  |  | 17 | 15

— patent publication US9827236B2, “Method of inhibiting the glycation of nutrient and endogenous proteins and peroxidation of nutrient and endogenous lipids” (priority 2014, dated 2017)
